Experimental data: patent US20230124634A1, “ANTIBACTERIAL COMPOSITION” (CONOPCO, INC., D/B/A UNILEVER, priority 2020, published 2023)

Experiments:
[1] = test system: Staphylococcus aureus ATCC 6538; test: In-Vitro Time-Kill assay (EN 1040:2005 with minor modifications); format: cell-based
Experimental: Inoculums of S. aureus at about 10^7.5 colony forming units per milliliter (CFU/mL) were prepared from 24-hour cultures on agar plates. […]
The log10 of (number of surviving cells (CFU/mL)/initial number of cells) is plotted versus the exposure time. […] The exposure time is limited to only 60 s, as this time frame is a realistic estimate of the amount of time devoted to hand washing.
Surfactant Solution Preparation—Solution preparation consisted of mixing the surfactant solution with an equal volume of the appropriate buffer to form a test solution containing 50% of the original formulation concentration. Sodium carbonate/bicarbonates buffers (0.1 M) were prepared for use at pH 10 and 7, respectively, while sodium acetate buffer was used at pH 5.
The bacteria were stored at −80° C. and fresh working cultures were prepared by streaking on Tryptic Soy Agar plates for 24 hours at 37° C. and then preparing second subcultures in the same way before each experiment.
Following this procedure, stationary-phase bacterial cultures at approximately […] colony forming units (CFU) per mL (GF-U) were treated with the surfactant solution (as described above) at 25° C., rather than at 20° C. as specified in the Standard. In constructing the test sample, 8 parts by weight of the surfactant solution was combined with 1 part by weight of the culture and 1 part by weight of water. After 10, 20, 30, and 60 seconds of exposure, the samples were neutralized to arrest the antibacterial activity of the surfactant solution. […] The test solutions were serially diluted, plated on solid medium, and incubated for 24 hours. The surviving cells were then enumerated. Bactericidal activity was defined as the log10 reduction in CFU relative to the initial bacterial concentration at 0 seconds. Cultures not exposed to surfactant solution acted as the no-treatment controls. The log10 reduction was calculated using the formula:
log10 reduction=log10(CFU in no-treatment control)−log10(CFU in treated sample)

[2] = cited from earlier work
[3] = Silver ion solubility derived from solubility product (Ksp) in water at 25° C.; details: calculated from Ksp
Source text: More particularly, silver ion solubility [Ag+], a value given in mol/L may be calculated using the formula:

[4] = pH 5; cited from earlier work
[5] = throughout the pH interval claimed

sodium lauroamphoacetate [reference compound]
biocidal, inherently or in combination with silver ion ([1]; pH 7): ineffective

octyl phenol ethoxylate [Triton X-100, reference compound]
biocidal, inherently or in combination with silver ion ([1]; pH 5, 10-60 second time scale): not biocidal | biocidal, inherently or in combination with silver ion ([1]; pH 7): ineffective

CCCCCCCCCCCCOS(=O)(=O)[O-].[Na+] [SDS, sodium dodecyl sulfate]
synergy with silver ion ([1]; pH 5): strong synergy with silver ion | intrinsic biocidal properties ([1]; pH 5, on its own): quite biocidal on its own | inherent biocidal action [1, 5]: limited inherent biocidal action | synergy with silver ion [1, 5]: strong synergy with silver ion

sodium lauryl ether sulfate with (on average) 3 ethoxy groups [SLES-3EO]
inherent biocidal action [1, 5]: limited inherent biocidal action | synergy with silver ion [1, 5]: strong synergy with silver ion

O=C([O-])CC(O)(CC(=O)[O-])C(=O)[O-].[Ag+].[Ag+].[Ag+] [Silver citrate]
Ksp (mol/L in water at 25° C.) [2]: 2.5e-16 mol/L

[Br][Ag] [Silver bromide]
Ksp (mol/L in water at 25° C.) [2]: 5.3e-13 mol/L

[Ag+] [silver ion]
minimum level of silver ion necessary to see enhanced biocidal action ([1]; in the presence of 10% SLES and 0.5 M NaNO3, pH 7 and 25° C.): ≥ 0.03 ppm

sodium cocoyl glycinate [reference compound]
biocidal, inherently or in combination with silver ion ([1]; pH 7): ineffective

sodium lauryl ether sulfate with (on average) 1 ethoxy group [SLES-1 EO]
log10 reduction ([1]; pH range of 7-10, in the presence of silver ion): about 4 log10 | log10 reduction ([1]; pH range of 7-10, without silver): about 0.5 log10 | inherent biocidal action [1, 5]: limited inherent biocidal action | synergy with silver ion [1, 5]: strong synergy with silver ion

Sodium methyl cocoyl taurate [reference compound]
synergy with silver ion ([1]; pH 5): nor does it enhance the biocidal action of silver ion | intrinsic biocidal properties ([1]; pH 5, on its own): does not have intrinsic biocidal properties | biocidal, inherently or in combination with silver ion ([1]; pH 7): ineffective

O=C([O-])c1ccccc1.[Ag+] [Silver benzoate]
Ksp (mol/L in water at 25° C.) [2]: 2.5e-05 mol/L

O=S(=O)([O-])[O-].[Ag+].[Ag+] [Silver sulfate]
Ksp (mol/L in water at 25° C.) [2]: 1.4e-05 mol/L

[Cl][Ag] [Silver chloride]
Ksp (mol/L in water at 25° C.) [2]: 1.8e-10 mol/L | Silver Ion Solubility [Ag+] (mol/L in water at 25° C.) [3]: 1.3e-05 mol/L

C/C=C/C=C/C(=O)O [sorbic acid]
percentage of organic acid preservative remaining undissociated (and active) [4]: 37%

sodium cocoyl glutamate [reference compound]
biocidal, inherently or in combination with silver ion ([1]; pH 7): ineffective

sodium lauryl ether sulfate [SLES]
synergy with silver ion ([1]; pH 5): strong synergy with silver ion | log10 reduction ([1]; pH 5, on its own): about 2 log10 | log10 unit reduction ([1]; pH 7, SLES at 1% (top-half of Table 5)): ≤ 1 log10 | log10 unit reduction ([1]; pH 7, SLES at 10% (second half of Table 5)): ≤ 1 log10

O=[N+]([O-])[O-].[Na+] [NaNO3, sodium nitrate]
NaNO3 necessary to recover a one unit log10 reduction in S. aureus ([1]; in the presence of 0.03 M NaCl, SLES/Ag^+, pH 7.0): ≥ 0.3 M

O=C(O)c1ccccc1 [benzoic acid]
percentage of organic acid preservative remaining undissociated (and active) [4]: 13%
